{
  "source": "patent US11084799B2",
  "about": "“Polymorph of benzamide compound and preparation method and applications thereof” (SHENYANG SINOCHEM AGROCHEMICALS R&D CO., LTD., priority 2016, dated 2021)",
  "key": {"[1]": {"test": "Particle size distribution of 10% water suspending agent", "format": "physicochemical", "from_the_text": "(§1) The formulation includes the following composition: 10 parts of polymorph A of Compound 1 or polymorph B of Compound 1 obtained in above examples, 3 parts of sodium naphthalenesulfonate formaldehyde condensate, 3 parts of sodium salt of alkyl naphthalene sulfonic acid polycondensate, 0.1 part of white carbon black, 0.1 part of xanthan gum, 2 parts of pesticide emulsifier 0201B, 5 parts of glycol, 0.2 part of WJX-1 and water which is used to complement up to 100 parts by weight were successively added to a mixing tank for mixing. After conducting coarse grinding and homogenization through high shear, the mixture was grinded in a sand mill and detected the particle size of sanding materials through a sedimentograph. After the particle size meeting the standard requirements, the mixture was filtered to obtain 10% water suspending agent of polymorph A of Compound 1 or polymorph B of Compound 1."}, "[2]": {"test": "Heat storage (54 ± 2° C.) of 10% water suspending agent", "format": "physicochemical", "from_the_text": "as §1"}, "[3]": {"test": "Pourability of 10% water suspending agent", "format": "physicochemical", "from_the_text": "as §1"}, "[4]": {"test": "Formulation sample (10% water suspending agent) kept at normal temperatures", "format": "physicochemical", "from_the_text": "as §1"}, "[5]": {"format": "physicochemical", "from_the_text": "In the present invention, the slurry of the polymorph B of Compound 1 is heated in the presence of the solvent to convert into the polymorph A of Compound 1. The solvent is selected from the alcohol solvent and/or water. The alcohol solvent is selected from methanol, ethanol, n-propanol, isopropanol, n-butanol and n-pentanol. The adopted solvent can well convert the polymorph B into the polymorph A. In addition, the water as the solvent is well used to convert the polymorph B into the polymorph A. Furthermore, in the conversion process, at a temperature not more than 100° C., almost 100% conversion is completed at high yield within proper time. In the selection of the solvent, the water is selected to effectively reduce cost compared with the organic solvent. […] As an alternative, if the polymorph A with high concentration is in the water, then the polymorph A can be separated through evaporation of the water."}, "[6]": {"test": "Hygroscopicity on exposure to changing air humidity", "format": "physicochemical", "conditions": "exposed to changing air humidity", "from_the_text": "(§2) The advantages of the polymorph A in aspects such as chemical stability, filterability, solubility, hygroscopicity, melting point, solid density and flowability can have a significant impact on the developments of the production method and a formulation and on the quality and efficacy of a plant treating agent. […] The stability is favorable for determination of consistency of Compound 1. These features enable the polymorph A of Compound 1 to be well suitable for preparing a long effective and stable solid formulation so that the polymorph A has stable content of active component."}, "[7]": {"test": "Dispersibility of 10% water suspending agent", "format": "physicochemical", "conditions": "after normal temperature for 2 years and heat storage (54 ± 2° C./14 d)", "from_the_text": "as §1"}, "[8]": {"test": "Crystal form stability during long-term storage", "format": "physicochemical", "from_the_text": "as §2"}, "[9]": {"test": "Suspensibility in processing of the formulation", "format": "physicochemical", "conditions": "compared with polymorph B", "from_the_text": "(§3) The polymorph A also presents better performance than the compound 1 prepared by the method (example 5) in the patent WO02010003350A1 in the aspect of the physical properties of the formulation."}, "[10]": {"test": "Insecticidal activity (pharmacodynamic stability), polymorph A versus polymorph B", "conditions": "compared with polymorph B", "from_the_text": "as §3"}},
  "note": "Entries after “also recorded” stand apart in the source; their conditions may differ.",
  "data": [
    {"smiles": "CNC(=O)c1cc(Cl)cc(Cl)c1NC(=O)c1cc(Br)nn1-c1ncc(Cl)cc1Cl", "note": "[Compound 1 Prepared by the Method in WO2010003350A1] [3-bromo-N-[2,4-dichloro-6-[(methylamino)carbonyl]phenyl]-1-(3,5-dichloro-2-pyridinyl)-1H-pyrazole-5-carboxamide, reference compound]", "values": [
      {"measurement": "Particle size distribution", "setting": "[1]; suspending agent, no storage time stated", "result": "distribution is wide."},
      {"measurement": "Heat storage (54 ± 2° C.): state of the formulation sample", "setting": "[2]; suspending agent, observed after heat storage for 3 days", "result": "solidified and could not shake."},
      {"measurement": "Pourability: flow / flowability of the formulation sample", "setting": "[3]; 10% water suspending agent", "result": "suspending agent has poor"},
      {"measurement": "Pourability: residues after washed", "setting": "[3]; 10% water suspending agent", "result": "unqualified."},
      {"measurement": "Kept at normal temperatures: flowability of the formulation sample", "setting": "[4]; suspending agent, after kept for 1 week", "result": "suspending agent has poor"}
    ]},
    {"smiles": "CNC(=O)c1cc(Cl)cc(Cl)c1NC(=O)c1cc(Br)nn1-c1ncc(Cl)cc1Cl", "note": "[Polymorph A, 3-bromo-N-[2,4-dichloro-6-[(methylamino)carbonyl]phenyl]-1-(3,5-dichloro-2-pyridinyl)-1H-pyrazole-5-carboxamide]", "values": [
      {"measurement": "Particle size distribution", "setting": "[1]; 10% water suspending agent, after normal temperature for 2 years and heat storage (54 ± 2° C./14 d), printed as almost unchanged", "result": "unchanged."},
      {"measurement": "Solubility in the water", "setting": "[5]", "result": "very low solubility"},
      {"measurement": "Hygroscopicity", "setting": "[6]", "result": "does not present obvious hygroscopicity"},
      {"measurement": "Flowability (Dispersibility line)", "setting": "[7]", "result": "good dispersibility and good; also recorded: good flowability"},
      {"measurement": "Heat storage (54 ± 2° C.): flowability of the formulation sample", "setting": "[2]; 10% water suspending agent, after kept for 14 days at 54 ± 2° C.", "result": "agent has good flowability"},
      {"measurement": "Conversion into other crystal forms", "setting": "[8]", "result": "does not convert into other crystal forms; also recorded: may not be converted into other crystal forms"},
      {"measurement": "Stability", "setting": "[8]", "result": "excellent stability"},
      {"measurement": "Pourability (overall verdict)", "setting": "[3]; 10% water suspending agent", "result": "qualified."},
      {"measurement": "Pourability: flow / flowability of the formulation sample", "setting": "[3]; 10% water suspending agent", "result": "good flowability; after"},
      {"measurement": "Pourability: residues after washed", "setting": "[3]; 10% water suspending agent", "result": "≤ 0.5%; the pourability is"},
      {"measurement": "Pourability", "setting": "[3]; in the processing of the formulation, compared with polymorph B", "result": "better pourability"},
      {"measurement": "Suspensibility", "setting": "[9]", "result": "better suspensibility"},
      {"measurement": "Kept at normal temperatures: flowability of the formulation sample", "setting": "[4]; 10% water suspending agent, after kept for two years", "result": "suspending agent has good"},
      {"measurement": "Kept at normal temperatures: viscosity of the formulation sample", "setting": "[4]; 10% water suspending agent, after kept for two years, printed as almost unchanged", "result": "unchanged viscosity."},
      {"measurement": "Insecticidal activity", "setting": "[10]", "result": "better insecticidal activity"}
    ]},
    {"smiles": "CNC(=O)c1cc(Cl)cc(Cl)c1NC(=O)c1cc(Br)nn1-c1ncc(Cl)cc1Cl", "note": "[Polymorph B, 3-bromo-N-[2,4-dichloro-6-[(methylamino)carbonyl]phenyl]-1-(3,5-dichloro-2-pyridinyl)-1H-pyrazole-5-carboxamide]", "values": [
      {"measurement": "Particle size distribution", "setting": "[1]; 10% water suspending agent, after kept at normal temperature for 1 week", "result": "wide."},
      {"measurement": "Hygroscopicity", "setting": "[6]", "result": "obvious hygroscopicity"},
      {"measurement": "Heat storage (54 ± 2° C.): state of the formulation sample", "setting": "[2]; 10% water suspending agent, observed after heat storage for 1 h", "result": "solidified and could not shake."},
      {"measurement": "Pourability: flow / flowability of the formulation sample", "setting": "[3]; 10% water suspending agent", "result": "suspending agent does not"},
      {"measurement": "Pourability: residues after washed", "setting": "[3]; 10% water suspending agent", "result": "unqualified."},
      {"measurement": "Kept at normal temperatures: state of the formulation sample of the suspending agent", "setting": "[4]; 10% water suspending agent, observed after kept for 2 h", "result": "suspending agent is solidified"}
    ]}
  ]
}
